Among the data in patent US9624175B2, “Fused-bicyclic aryl quinolinone derivatives as mutant-isocitrate dehydrogenase inhibitors” (Forma Therapeutics, Inc., priority 2015, dated 2017) are IC50 values, retold here.

Some results are limits rather than exact numbers.

IDH1-R132H recombinant protein, sequence (O75874 whole entry R132H): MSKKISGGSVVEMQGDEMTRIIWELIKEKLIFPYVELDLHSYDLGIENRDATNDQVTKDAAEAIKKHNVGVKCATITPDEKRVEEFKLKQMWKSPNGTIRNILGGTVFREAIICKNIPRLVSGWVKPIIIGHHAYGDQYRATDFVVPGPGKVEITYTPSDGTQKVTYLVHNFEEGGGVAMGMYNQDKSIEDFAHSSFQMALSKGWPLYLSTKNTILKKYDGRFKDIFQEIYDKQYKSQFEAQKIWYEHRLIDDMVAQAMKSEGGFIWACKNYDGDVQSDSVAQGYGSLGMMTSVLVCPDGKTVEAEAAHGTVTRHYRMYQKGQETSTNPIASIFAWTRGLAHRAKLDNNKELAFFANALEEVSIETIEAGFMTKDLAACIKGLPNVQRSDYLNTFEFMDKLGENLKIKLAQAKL

The target in the assay is IDH1-R132H recombinant protein (Homo sapiens (Human), UniProt O75874, R132H). Nature of the assay: IDH1-R132H enzymatic assay (NADPH consumption, diaphorase/resazurin readout). It is filed as biochemical. Conditions: inhibition of NADPH consumption, 30 nM IDH1-R132H; read-out: Enzyme IDH1 R132H IC50. The protocol:
Assays were performed in a 384-well black plate. An aliquot of 250 nL of compound was incubated with 10 μL of 30 nM IDH1-R132H or 10 nM IDH1-R132C recombinant protein in assay buffer (50 mM Tris pH=7.5, 150 mM NaCl, 5 mM MgCl2, 0.1% (w/v) Bovine Serum Albumin, and 0.01% Triton X-100) in each well at 25° C. for 15 minutes. After the plate was centrifuged briefly, an aliquot of 10 μL of 2 mM α-ketoglutarate and 20 μM NADPH solution prepared in assay buffer was then added to each well and the reaction was maintained at 25° C. for 45 minutes. An aliquot of 10 μL of diaphorase solution (0.15 U/mL diaphorase and 30 μM Resazurin in assay buffer) was added to each well. The plate was maintained at 25° C. for 15 minutes and then read on a plate reader with excitation and emission wavelengths at 535 nm and 590 nm, respectively. The IC50 of a given compound was calculated by fitting the dose response curve of inhibition of NADPH consumption at a given concentration with the four parameter logistic equation.
Consider `O=c1[nH]c2ccc(Cl)cc2cc1CNc1ccc2cn[nH]c2c1` [Compound I-25, 6-chloro-3-{[(1H-indazol-6-yl)amino]methyl}-1,2-dihydroquinolin-2-one], for which the IC50 was over 10 µM.

In the case of `COc1ccc2[nH]c(=O)c(CNc3ccc4cn[nH]c4c3)cc2c1` [Compound I-34, 3-{[(1H-indazol-6-yl)amino]methyl}-6-methoxy-1,2-dihydroquinolin-2-one], the IC50 is over 10 µM.

As to `Cc1cc2cc(CNc3ccc4ncsc4c3)c(=O)[nH]c2cc1C` [Compound I-40, 3-{[(1,3-benzothiazol-6-yl)amino]methyl}-6,7-dimethyl-1,2-dihydroquinolin-2-one], the half-maximal inhibitory concentration (IC50) is over 10 µM.

For the compound `Cc1n[nH]c2cc(NCc3cc4cc(Cl)ccc4[nH]c3=O)ccc12` [Compound I-19, 6-chloro-3-{[(3-methyl-1H-indazol-6-yl)amino]methyl}-1,2-dihydroquinolin-2-one], the IC50 was over 10 µM.

Turning to `COc1ccc2[nH]c(=O)c(CNc3ccc4ncccc4c3)cc2c1` [Compound I-39, 6-methoxy-3-{[(quinolin-6-yl)amino]methyl}-1,2-dihydroquinolin-2-one], the IC50 is over 10 µM.

As to `O=c1[nH]c2ccc(Cl)cc2cc1CNc1cc2ccccc2cn1` [Compound I-6, 6-chloro-3-{[(isoquinolin-3-yl)amino]methyl}-1,2-dihydroquinolin-2-one], the IC50 lay in the range of 1 to 10 µM.

In the case of `O=c1[nH]c2ccc(Cl)cc2cc1CNc1ccc2ncccc2c1` [Compound I-27, 6-chloro-3-{[(quinolin-6-yl)amino]methyl}-1,2-dihydroquinolin-2-one], the concentration for half-maximal inhibition (IC50) is over 10 µM.

With `C[C@H](Nc1nccc2c1CCN2S(C)(=O)=O)c1cc2cc(Cl)ccc2[nH]c1=O` [Compound I-43, 6-chloro-3-[(1S)-1-({1-methanesulfonyl-1H,2H,3H-pyrrolo[3,2-c]pyridin-4-yl}amino)ethyl]-1,2-dihydroquinolin-2-one], the IC50 is 1 to 10 µM.

Take `COc1ccc2[nH]c(=O)c(CNc3ccc4c(c3)OCCO4)cc2c1` [Compound I-30, 3-{[(2,3-dihydro-1,4-benzodioxin-6-yl)amino]methyl}-6-methoxy-1,2-dihydroquinolin-2-one]: the IC50 was over 10 µM.

As for `O=C1CCc2cc(NCc3cc4cc(Cl)ccc4[nH]c3=O)ccc2N1` [Compound I-20, 6-chloro-3-{[(2-oxo-1,2,3,4-tetrahydroquinolin-6-yl)amino]methyl}-1,2-dihydroquinolin-2-one], the IC50 was 1 to 10 µM.

In the case of `O=c1[nH]c2ccc(Cl)cc2cc1CNc1ccc2scnc2c1` [Compound I-29, 3-{[(1,3-benzothiazol-5-yl)amino]methyl}-6-chloro-1,2-dihydroquinolin-2-one], the IC50 was over 10 µM.

On to `COc1cc2c(cc1NCc1cc3cc(Cl)ccc3[nH]c1=O)NC(=O)CC2` [Compound I-17, 6-chloro-3-{[(6-methoxy-2-oxo-1,2,3,4-tetrahydroquinolin-7-yl)amino]methyl}-1,2-dihydroquinolin-2-one], for which the IC50 was over 10 µM.

`CN1C(=O)COc2cc(NCc3cc4cc(Cl)ccc4[nH]c3=O)ccc21` [Compound I-10, 7-{[(6-chloro-2-oxo-1,2-dihydroquinolin-3-yl)methyl]amino}-4-methyl-3,4-dihydro-2H-1,4-benzoxazin-3-one]: the IC50 is 1 to 10 µM.

Take `O=c1[nH]c2cc(NCc3cc4cc(Cl)ccc4[nH]c3=O)ccc2o1` [Compound I-3, 6-chloro-3-{[(2-oxo-2,3-dihydro-1,3-benzoxazol-5-yl)amino]methyl}-1,2-dihydroquinolin-2-one]: the IC50 fell in the range of 0.1 to 1 µM.

Consider `O=C1CCCc2c(NCc3cc4cc(Cl)ccc4[nH]c3=O)cccc21` [Compound I-22, 6-chloro-3-{[(5-oxo-5,6,7,8-tetrahydronaphthalen-1-yl)amino]methyl}-1,2-dihydroquinolin-2-one], for which the concentration for half-maximal inhibition (IC50) is over 10 µM.

With `N#Cc1ccc(NCc2cc3cc(Cl)ccc3[nH]c2=O)c2ccccc12` [Compound I-7, 4-{[(6-chloro-2-oxo-1,2-dihydroquinolin-3-yl)methyl]amino}naphthalene-1-carbonitrile], the IC50 was in the range of 1 to 10 µM.

In the case of `O=c1[nH]c2ccc(Cl)cc2cc1CNc1cccc2c1OCC2` [Compound I-9, 6-chloro-3-{[(2,3-dihydro-1-benzofuran-7-yl)amino]methyl}-1,2-dihydroquinolin-2-one], the IC50 lay within 1 to 10 µM.

As for `Cc1ccc2cc(NCc3cc4cc(C)c(C)cc4[nH]c3=O)ccc2n1` [Compound I-37, 6,7-dimethyl-3-{[(2-methylquinolin-6-yl)amino]methyl}-1,2-dihydroquinolin-2-one], the IC50 is over 10 µM.

In the case of `O=c1[nH]c2ccc(Cl)cc2cc1CNc1ccc2[nH]c(C(F)(F)F)nc2c1` [Compound I-28, 6-chloro-3-({[2-(trifluoromethyl)-1H-1,3-benzodiazol-5-yl]amino}methyl)-1,2-dihydroquinolin-2-one], the half-maximal inhibitory concentration (IC50) was over 10 µM.

On to `COc1ccc2[nH]c(=O)c(CNc3ccc4ncsc4c3)cc2c1` [Compound I-36, 3-{[(1,3-benzothiazol-6-yl)amino]methyl}-6-methoxy-1,2-dihydroquinolin-2-one], for which the IC50 is over 10 µM.

`O=c1[nH]c2ccc(Cl)cc2cc1CNc1ccc2nncn2n1` [Compound I-23, 6-chloro-3-[({[1,2,4]triazolo[4,3-b]pyridazin-6-yl}amino)methyl]-1,2-dihydroquinolin-2-one]: the IC50 was over 10 µM.

For the compound `O=c1[nH]c2ccc(Cl)cc2cc1CNc1ccc2[nH]cnc2c1` [Compound I-24, 3-{[(1H-1,3-benzodiazol-5-yl)amino]methyl}-6-chloro-1,2-dihydroquinolin-2-one], the half-maximal inhibitory concentration (IC50) was over 10 µM.

Turning to `Cn1c(=O)oc2ccc(NCc3cc4cc(Cl)ccc4[nH]c3=O)cc21` [Compound I-2, 6-chloro-3-{[(3-methyl-2-oxo-2,3-dihydro-1,3-benzoxazol-5-yl)amino]methyl}-1,2-dihydroquinolin-2-one], the IC50 was 0.1 to 1 µM.

For the compound `Cn1c(=O)oc2cc(NCc3cc4cc(Cl)ccc4[nH]c3=O)ccc21` [Compound I-14, 6-chloro-3-{[(3-methyl-2-oxo-2,3-dihydro-1,3-benzoxazol-6-yl)amino]methyl}-1,2-dihydroquinolin-2-one], the IC50 is over 10 µM.

Take `O=C1Cc2ccc(NCc3cc4cc(Cl)ccc4[nH]c3=O)cc2N1` [Compound I-13, 6-chloro-3-{[(2-oxo-2,3-dihydro-1H-indol-6-yl)amino]methyl}-1,2-dihydroquinolin-2-one]: the IC50 was over 10 µM.

`O=c1[nH]c2ccc(Cl)cc2cc1CNc1ccc2ncsc2c1` [Compound I-26, 3-{[(1,3-benzothiazol-6-yl)amino]methyl}-6-chloro-1,2-dihydroquinolin-2-one]: the IC50 was over 10 µM.

`O=c1[nH]c2ccc(Cl)cc2cc1CNc1cccc2c1OCCC2` [Compound I-16, 6-chloro-3-{[(3,4-dihydro-2H-1-benzopyran-8-yl)amino]methyl}-1,2-dihydroquinolin-2-one]: the IC50 is over 10 µM.

As to `O=C1COc2cc(NCc3cc4cc(Cl)ccc4[nH]c3=O)ccc2N1` [Compound I-11, 7-{[(6-chloro-2-oxo-1,2-dihydroquinolin-3-yl)methyl]amino}-3,4-dihydro-2H-1,4-benzoxazin-3-one], the IC50 lay within 1 to 10 µM.
